Data as given in patent US6359168B1, “Compounds derived from menthol and use as refreshing agent” (Firmenich SA, priority 1998, dated 2002).

How the values were obtained:
Type in all cases: in vivo, human
buccal mucosae = assay: Taste and cooling effect of the compound when tasted
expert flavourists [1] = assay: Gelatin-based grapefruit confectioneries compared by expert flavourists under blind conditions; conditions: 0.05% by weight in gelatin-based grapefruit confectionery
Method: By a method which is known per se, grapefruit-flavoured confectioneries were prepared from 30 g gelatin, 175 g water, 150 g sugar and 200 g glucose. We then added 0.8% citric acid and 0.08% of a grapefruit flavouring of the formula given in Example 6. Under blind conditions, expert flavourists then compared this base preserve, without any additives, with preserve of the same composition to which certain compounds according to the invention had been added.

expert tasters [2] = assay: Chewing gum compared by expert tasters under blind conditions; conditions: 0.4 parts by weight in chewing gum
Method: Chewing gum was prepared from a Cafosa Navada Plus T 413-01chewing-gum base (18 parts by weight) (source: Cafosa Gum Products Technology, Barcelona, Spain), sugar (60 parts by weight, glucose (20 parts by weight) and glycerol (0.5 parts by weight). 0.8 parts by weight of citric acid and 1 part by weight of lemon flavouring according to the formula given in Example 8 were then added to this mixture. Under blind conditions, expert tasters then compared this chewing-gum base, without any additives, with chewing gums of the same composition to which certain compounds according to the invention had been added.

expert flavourists [3] = assay: Grapefruit-flavoured sweets compared by expert flavourists under blind conditions; conditions: 0.05% in grapefruit-flavoured sweets
Method: Grapefruit-flavoured sweets were prepared from boiled sugar, 1% citric acid, and 0.05% of a grapefruit flavouring of the following formula: Under blind conditions, expert flavourists then compared these sweets, without any additives, with sweets of the same composition to which certain compounds according to the invention had been added.

expert flavourists [4] = assay: Lemon sorbets compared by expert flavourists under blind conditions; conditions: 0.05% by weight in lemon sorbet
Method: Lemon sorbets were prepared from the following ingredients using conventional techniques: 0.5% citric acid and 0.01% of lemon flavouring of the following formula were then added: Under blind conditions, expert flavourists then compared this lemon sorbet, without any additives, with sorbets of the same composition to which certain compounds according to the invention had been added.

expert tasters [5] = assay: Orange drink compared by expert tasters under blind conditions; conditions: 0.003% in orange drink
Method: An orange-flavoured drink was prepared from a 65° Brix syrup which had been diluted to 10%, acidified with 1.5% citric acid and then flavoured with 0.01% of an orange flavouring of the following formula: Under blind conditions, expert tasters then compared this base drink, without any additives, with drinks of the same composition to which certain compounds according to the invention had been added.

Row | Structure (SMILES) | cooling effect (buccal mucosae) | freshness (expert flavourists [1]) | freshness (expert tasters [2]) | freshness (expert flavourists [3]) | freshness (expert flavourists [4]) | freshness (expert tasters [5])
1 | CC(C)[C@@H]1CC[C@@H](C)C[C@H]1OC(=O)COCCO [(1R,2S,5R)-3-menthyl (2-hydroxyethoxy)acetate] | immediately and intensely cooling |  |  |  |  | 
2 | COCCOCC(=O)O[C@@H]1C[C@H](C)CC[C@H]1C(C)C [(1R,2S,5R)-3-menthyl 3,6-dioxaheptanoate] |  | the same freshness effect | prolonged freshness |  |  | 
3 | COCC(=O)O[C@@H]1C[C@H](C)CC[C@H]1C(C)C [(1R,2S,5R)-3-menthyl methoxyacetate, (1R,2S,5R)-3-methyl methoxyacetate] |  | leaves a freshness in the mouth | prolonged freshness | yielded a freshness | pleasant freshness in the mouth | sensation of freshness which develops as an after-taste
4 | CC(C)[C@@H]1CC[C@@H](C)C[C@H]1OC(=O)COCCOCCOCCO [(1R,2S,5R)-menthyl 11-hydroxy-3,6,9-trioxaundecanoate] | develops more particularly on the tongue and in the throat |  |  |  |  | 
